Data: ChEMBL document CHEMBL4476883, “Hydroxy formamide derivatives and their use” (2017)

Assays:
[1] = Reduction in PICP levels in human cardiac fibroblasts incubated for 24 to 48 hrs by ELISA; format: functional
[2] = biological target: T1, Tolloid-like protein 2 (Homo sapiens, UniProt Q9Y6L7); experiment: Inhibition of C-terminal Avi-6x-His epitope tagged and N-terminal human RAGE signal sequence tagged recombinant human TLL2 (26 to 1015 amino acids) expressed in CHOE1A cells incubated for 60 mins with promyostatin peptide substrate by FRET based assay; format: cell-based
T1 sequence (Q9Y6L7 whole entry): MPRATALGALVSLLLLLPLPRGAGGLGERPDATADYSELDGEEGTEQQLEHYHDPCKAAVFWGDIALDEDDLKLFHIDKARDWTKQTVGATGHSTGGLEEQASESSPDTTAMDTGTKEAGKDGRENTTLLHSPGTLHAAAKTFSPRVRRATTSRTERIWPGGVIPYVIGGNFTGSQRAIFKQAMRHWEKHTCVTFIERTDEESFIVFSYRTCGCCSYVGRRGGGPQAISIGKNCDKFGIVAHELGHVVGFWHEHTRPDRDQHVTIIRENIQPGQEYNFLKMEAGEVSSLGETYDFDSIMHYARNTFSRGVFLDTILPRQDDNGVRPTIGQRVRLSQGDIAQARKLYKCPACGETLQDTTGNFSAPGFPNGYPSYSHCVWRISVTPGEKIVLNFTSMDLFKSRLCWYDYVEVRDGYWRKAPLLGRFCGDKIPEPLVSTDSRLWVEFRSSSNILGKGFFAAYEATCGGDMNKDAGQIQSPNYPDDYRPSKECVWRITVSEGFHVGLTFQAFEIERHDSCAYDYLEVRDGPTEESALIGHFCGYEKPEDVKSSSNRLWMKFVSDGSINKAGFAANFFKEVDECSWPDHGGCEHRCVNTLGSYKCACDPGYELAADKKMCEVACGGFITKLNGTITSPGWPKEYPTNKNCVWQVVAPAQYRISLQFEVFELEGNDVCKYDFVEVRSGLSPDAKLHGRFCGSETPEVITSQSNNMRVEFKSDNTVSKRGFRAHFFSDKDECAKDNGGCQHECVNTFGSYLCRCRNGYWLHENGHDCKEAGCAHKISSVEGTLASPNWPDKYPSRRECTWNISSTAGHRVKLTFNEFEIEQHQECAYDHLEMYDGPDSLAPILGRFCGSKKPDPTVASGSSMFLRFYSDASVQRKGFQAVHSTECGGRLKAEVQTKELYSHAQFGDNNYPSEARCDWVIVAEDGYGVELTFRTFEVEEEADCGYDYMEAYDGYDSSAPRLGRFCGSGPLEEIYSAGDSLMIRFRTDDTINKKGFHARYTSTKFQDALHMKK

[3] = biological target: Tolloid-like protein 1 (Homo sapiens, UniProt O43897, I156V/N221S/V284A); experiment: Inhibition of recombinant human TLL1 I156V/N221S/V284A mutant expressed in CHOE1A cells pre-incubated for 10 mins before promyostatin peptide substrate addition and measured after 60 mins by FRET based assay; format: cell-based
Tolloid-like protein 1, sequence (O43897 148-1013 I156V/N221S/V284A limits assumed): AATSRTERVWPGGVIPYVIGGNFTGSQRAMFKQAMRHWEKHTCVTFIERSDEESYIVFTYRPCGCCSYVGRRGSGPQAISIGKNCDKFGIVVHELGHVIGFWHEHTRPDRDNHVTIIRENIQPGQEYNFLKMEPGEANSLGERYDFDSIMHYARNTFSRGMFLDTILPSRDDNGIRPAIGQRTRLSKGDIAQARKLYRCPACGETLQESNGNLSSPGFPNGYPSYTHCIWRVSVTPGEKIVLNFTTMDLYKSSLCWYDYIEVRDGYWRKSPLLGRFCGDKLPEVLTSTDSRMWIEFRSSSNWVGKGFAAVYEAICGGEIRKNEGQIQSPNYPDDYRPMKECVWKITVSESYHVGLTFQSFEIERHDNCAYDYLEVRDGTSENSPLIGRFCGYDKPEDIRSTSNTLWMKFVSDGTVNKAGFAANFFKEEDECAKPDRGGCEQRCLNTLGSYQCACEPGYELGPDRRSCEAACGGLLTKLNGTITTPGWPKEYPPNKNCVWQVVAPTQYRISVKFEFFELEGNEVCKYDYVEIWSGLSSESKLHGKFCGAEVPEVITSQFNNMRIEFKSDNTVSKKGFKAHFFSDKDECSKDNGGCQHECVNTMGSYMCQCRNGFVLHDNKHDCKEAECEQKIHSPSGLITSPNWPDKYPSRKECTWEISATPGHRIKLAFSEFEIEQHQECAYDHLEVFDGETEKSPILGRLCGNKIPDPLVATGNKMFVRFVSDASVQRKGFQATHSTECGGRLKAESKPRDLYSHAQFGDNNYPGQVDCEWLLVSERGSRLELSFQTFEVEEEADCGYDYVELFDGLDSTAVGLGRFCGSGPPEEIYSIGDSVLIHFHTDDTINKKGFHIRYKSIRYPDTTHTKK

[4] = biological target: T2, Bone morphogenetic protein 1 (Homo sapiens, UniProt P13497); experiment: Inhibition of C-terminal FLAG-6x-His epitope tagged and N-terminal human RAGE signal sequence tagged human BMP1 (23 to 721 amino acids) expressed in CHO-E1A cells pre-incubated for 10 mins before promyostatin peptide substrate addition and measured after 30 mins using 50 nM BMP1 by FRET based assay; format: cell-based
T2 sequence (P13497 whole entry): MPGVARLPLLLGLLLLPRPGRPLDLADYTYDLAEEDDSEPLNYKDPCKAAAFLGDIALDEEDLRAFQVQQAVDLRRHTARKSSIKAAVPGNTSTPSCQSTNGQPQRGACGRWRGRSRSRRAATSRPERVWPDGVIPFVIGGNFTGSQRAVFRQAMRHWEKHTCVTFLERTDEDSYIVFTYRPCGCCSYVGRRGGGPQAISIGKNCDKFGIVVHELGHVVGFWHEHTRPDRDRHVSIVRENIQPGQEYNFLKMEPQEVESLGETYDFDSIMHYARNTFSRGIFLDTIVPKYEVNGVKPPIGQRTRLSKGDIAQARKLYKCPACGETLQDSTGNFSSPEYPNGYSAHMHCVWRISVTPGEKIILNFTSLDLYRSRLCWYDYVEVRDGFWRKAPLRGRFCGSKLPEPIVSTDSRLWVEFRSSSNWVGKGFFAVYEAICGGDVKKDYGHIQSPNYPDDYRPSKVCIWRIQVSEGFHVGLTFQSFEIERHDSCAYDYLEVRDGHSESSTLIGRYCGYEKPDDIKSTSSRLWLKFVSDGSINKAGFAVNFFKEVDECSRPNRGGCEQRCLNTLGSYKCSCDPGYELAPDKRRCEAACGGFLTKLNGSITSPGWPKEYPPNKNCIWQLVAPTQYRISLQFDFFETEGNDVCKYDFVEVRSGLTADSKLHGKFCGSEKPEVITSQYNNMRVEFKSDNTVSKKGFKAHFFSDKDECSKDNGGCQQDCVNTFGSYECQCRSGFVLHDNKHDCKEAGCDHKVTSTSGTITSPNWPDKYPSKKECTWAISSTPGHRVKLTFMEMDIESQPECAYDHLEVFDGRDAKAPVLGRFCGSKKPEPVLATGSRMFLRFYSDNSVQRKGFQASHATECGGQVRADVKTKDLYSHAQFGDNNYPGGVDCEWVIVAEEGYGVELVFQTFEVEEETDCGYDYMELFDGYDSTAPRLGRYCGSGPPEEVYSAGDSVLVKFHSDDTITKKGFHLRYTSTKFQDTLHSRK

[5] = biological target: T2, Bone morphogenetic protein 1; experiment: Inhibition of C-terminal FLAG-6x-His epitope tagged and N-terminal human RAGE signal sequence tagged human BMP1 (23 to 721 amino acids) expressed in CHO-E1A cells pre-incubated for 10 mins before promyostatin peptide substrate addition and measured after 60 mins using 0.5 nM BMP1 by FRET based assay; format: cell-based

SMILES | IC50 [1] | IC50 [2] | IC50 [3] | IC50 [4] | IC50 [5]
O=CN(O)C[C@@H](CC1CCCC1)C(=O)NCNC(=O)c1cccc(-c2cccc(C(F)(F)F)c2)c1 | < 20 µM | < 631 nM | < 398 nM | < 251 nM | < 126 nM
CCCCC[C@H](CN(O)C=O)C(=O)NCNC(=O)c1cccc(-c2cccc(C(=O)O)c2)c1 | < 20 µM | < 631 nM | < 398 nM | < 251 nM | < 126 nM
CCCCC[C@H](CN(O)C=O)C(=O)NCNC(=O)c1cccc(-c2cccc(OC)c2F)c1 | < 20 µM | < 631 nM | < 398 nM | < 251 nM | < 126 nM
CCCCC[C@H](CN(O)C=O)C(=O)NCNC(=O)c1cccc(-c2ccnn2CC)c1 | < 20 µM | < 631 nM | < 398 nM | < 251 nM | < 126 nM
CCCCC[C@@H](C(=O)NCNC(=O)c1cc(C(=O)O)cc(-c2cc(OCC)cc(C(=O)O)c2)c1)[C@@H](CC)N(O)C=O | < 20 µM |  |  | < 251 nM | < 126 nM
CCCCC[C@H](CN(O)C=O)C(=O)NCNC(=O)c1cccc(-c2cc(OC)nnc2OC)c1 | < 20 µM | < 631 nM | < 398 nM | < 251 nM | < 126 nM
CCCCC[C@H](CN(O)C=O)C(=O)NCNC(=O)c1cccc(-c2ccc(F)cc2)c1 | < 20 µM | < 631 nM | < 398 nM | < 251 nM | < 126 nM
CCOc1cccc(-c2cccc(C(=O)NCNC(=O)[C@H](CC3CCCC3)CN(O)C=O)c2)c1 | < 20 µM | < 631 nM | < 398 nM | < 251 nM | < 126 nM
CCCCC[C@H](CN(O)C=O)C(=O)NCNC(=O)c1cccc(-c2cccc(OC(C)C)c2)c1 | < 20 µM | < 631 nM | < 398 nM | < 251 nM | < 126 nM
CCCCC[C@H](CN(O)C=O)C(=O)NCNC(=O)c1cccc(-c2cccc(C(C)C)c2)c1 | < 20 µM | < 631 nM | < 398 nM | < 251 nM | < 126 nM
CCc1cccc(-c2cccc(C(=O)NCNC(=O)[C@H](CC3CCCC3)CN(O)C=O)c2)c1 | < 20 µM | < 631 nM | < 398 nM | < 251 nM | < 126 nM
CCCCC[C@H](CN(O)C=O)C(=O)NCNC(=O)c1cccc(-c2cccc(O)c2)c1 | < 20 µM | < 631 nM | < 398 nM | < 251 nM | < 126 nM
CCCCC[C@H](CN(O)C=O)C(=O)NCNC(=O)c1cccc(-c2cc(OC)ccc2OC)c1 | < 20 µM | < 631 nM | < 398 nM | < 251 nM | < 126 nM
CCCCC[C@H](CN(O)C=O)C(=O)NCNC(=O)c1cccc(-c2cccc(F)c2)c1 | < 20 µM | < 631 nM | < 398 nM | < 251 nM | < 126 nM
CCCCC[C@H](CN(O)C=O)C(=O)NCNC(=O)c1cccc(-c2cccc(C(N)=O)c2)c1 | < 20 µM | < 631 nM | < 398 nM | < 251 nM | < 126 nM
CCCCC[C@H](CN(O)C=O)C(=O)NCNC(=O)c1cccc(-c2cccc(NS(C)(=O)=O)c2)c1 | < 20 µM | < 631 nM | < 398 nM | < 251 nM | < 126 nM
COc1cncc(-c2cccc(C(=O)NCNC(=O)[C@H](CC3CCCC3)CN(O)C=O)c2)c1 | < 20 µM | < 631 nM | < 398 nM | < 251 nM | < 126 nM
CCCCC[C@H](CN(O)C=O)C(=O)NCNC(=O)c1cccc(-c2ccc(OC)cc2)c1 | < 20 µM | < 631 nM | < 398 nM | < 251 nM | < 126 nM
CCCCC[C@H](CN(O)C=O)C(=O)NCNC(=O)c1cccc(-c2cccc(S(N)(=O)=O)c2)c1 | < 20 µM | < 631 nM | < 398 nM | < 251 nM | < 126 nM
CCCCC[C@H](CN(O)C=O)C(=O)NCNC(=O)c1cccc(-c2cncc(OC)c2)c1 | < 20 µM | < 631 nM | < 398 nM | < 251 nM | < 126 nM
CCCCC[C@H](CN(O)C=O)C(=O)NCNC(=O)c1cccc(-c2ccc(N(C)C)cc2)c1 | < 20 µM | < 631 nM | < 398 nM | < 251 nM | < 126 nM
CCCCC[C@H](CN(O)C=O)C(=O)NCNC(=O)c1cccc(-c2cccc(N(C)C)c2)c1 | < 20 µM | < 631 nM | < 398 nM | < 251 nM | < 126 nM
CCCCC[C@H](CN(O)C=O)C(=O)NCNC(=O)c1cccc(-c2ccc(F)c(OC)c2)c1 | < 20 µM | < 631 nM | < 398 nM | < 251 nM | < 126 nM
COc1cc(-c2cccc(C(=O)NCNC(=O)[C@H](CCc3ccccc3)CN(O)C=O)c2)c(OC)nn1 | < 20 µM | < 631 nM | < 398 nM | < 251 nM | < 126 nM
CCCCC[C@H](CN(O)C=O)C(=O)NCNC(=O)c1cccc(-c2cccc(OCC(F)(F)F)c2)c1 | < 20 µM | < 631 nM | < 398 nM | < 251 nM | < 126 nM
O=CN(O)C[C@@H](CC1CCCC1)C(=O)NCNC(=O)c1cccc(-c2cccc(OC(F)(F)F)c2)c1 | < 20 µM | < 631 nM | < 398 nM | < 251 nM | < 126 nM
O=CN(O)C[C@@H](CC1CCCC1)C(=O)NCNC(=O)c1cccc(-c2cccc(O)c2)c1 | < 20 µM | < 631 nM | < 398 nM | < 251 nM | < 126 nM
COc1cc(OC)cc(-c2cccc(C(=O)NCNC(=O)[C@H](CC3CCCC3)CN(O)C=O)c2)c1 | < 20 µM | < 631 nM | < 398 nM | < 251 nM | < 126 nM
CCCCC[C@H](CN(O)C=O)C(=O)NCNC(=O)c1cccc(-c2cccc(S(C)(=O)=O)c2)c1 | < 20 µM | < 631 nM | < 398 nM | < 251 nM | < 126 nM
CCCCC[C@H](CN(O)C=O)C(=O)NCNC(=O)c1cccc(-c2ccccc2F)c1 | < 20 µM | < 631 nM | < 398 nM | < 251 nM | < 126 nM
